From patent US4921847A, “Trihalo(amine)gold(III) anti-tumor complexes” (Engelhard Corporation, priority 1989, dated 1990)
Where “and” joins values, the source holds several entries; their conditions need not be identical. Identical values can stand only once.

How the values were obtained:
[1] = tested on: S180 ascites; assay: Anti-tumor evaluation against S180 ascites in mice (% increase in life span, survivors); assay type: in vivo, female CFW Swiss mice; conditions: S 180 ascites; for Survivors: day of evaluation
Protocol: The above prepared compounds were evaluated against S180 ascites in female CFW Swiss mice. The mice were weighed (average weight: 20 g), placed into cages (six mice to a cage) and on day zero the mice were inoculated with 0.2 ml of a freshly prepared saline suspension (0.15 M NaCl) containing 1×10^7 tumor cells/ml or a total of 2×10^6 cells. This inoculum was freshly prepared using "transfer" mice which had been injected with tumor cells the previous week; it was obtained via the following steps: (1) the removal of cells from the peritoneal cavity of the sacrificed transfer mouse, (2) alternate centrifugation and washing operations (2-3 times with cold saline) to remove blood and other components, and (3) dilution of the volume of the packed cell with saline (1:3). A final centrifugation was carried out at 1000 RPM over a two minute period. A cell count was made on a 2,000-fold dilution of this 1:3 suspension by means of a Coulter Counter. A final dilution to 1×10^7 cells/ml was made based on the average count.
On day 1, solutions of the test compounds were prepared and each mouse in a set of six were injected with the same test compound at the same dosage. The doses were based on the average weight of the animals (cage weight). Also, beginning on day 1 two controls were employed containing six mice per control:
(1) Normal Control: This consisted solely of the carrier or diluent used in combination with the test compound; and
(2) Positive Control: This consisted solely of the known anti-tumor agent cis-[Pt(NH3)2 Cl2 ] (Cisplatin) in saline (8 mg/kg) to test the response of the biological system.
The effectiveness of a test compound was measured in terms of the % increase in life span (%ILS) of the test mice relative to the Normal Control (Calculated from the day of tumor inoculation, i.e., day zero). To standardize the test data and permit intercomparisons, the day of evaluation was arbitrarily taken as that day corresponding to twice the mean life span (or average day of death) of the control. This established a practical upper limit of 100% on the %ILS attainable. For calculation purposes the survivors on the day of evaluation were considered to have died on that day. The %ILS was calculated as follows: [formula] ILS values in excess of 50% were interpreted as being indicative of anti-tumor activity, whereas, values in excess of 75% indicated excellent activity.
The products of Examples 1, 4, 10 and 11 were administered in a freshly prepared 1% sodium bicarbonate solution; the remaining test compounds were administered as slurries in 0.5% "Klucel" (hydroxypropylcellulose).

[2] = Solubility; assay type: physicochemical
[3] = tested on: Sarcoma 180 tumors; assay: Therapeutic index (LD50/ED90), implanted Sarcoma 180 tumors; assay type: in vivo, Swiss white mice; parameters: ED90: unit not given here; conditions: for Therapeutic Index: LD50/ED90; for Maximum % ILS (Dosage): S 180 ascites; for ED90: dose giving 50% increase in life span for 90% of the animals, determined graphically
[4] = tested on: Sarcoma 180 tumors; conditions: comparison value; cited from earlier work

| Compound | % ILS ([1]; 10 mg/kg) | Survivors ([1]; 10 mg/kg) | % ILS ([1]; 20 mg/kg) | Survivors ([1]; 20 mg/kg) | % ILS ([1]; 40 mg/kg) | Survivors ([1]; 40 mg/kg) | % ILS ([1]; 80 mg/kg) | Survivors ([1]; 80 mg/kg) | % ILS ([1]; 160 mg/kg) | Survivors ([1]; 160 mg/kg) | % ILS ([1]; 320 mg/kg) | Survivors ([1]; 320 mg/kg) | solubility in 1% sodium bicarbonate solution [2] | Therapeutic Index [3] | ED90 [3] | other results |
| --- | --- | --- | --- | --- | --- | --- | --- | --- | --- | --- | --- | --- | --- | --- | --- | --- |
| O=C(O)c1ccc[n+]([Au-]([Cl])([Cl])[Cl])c1 [Example 1, Trichloro(Nicotinic Acid)Gold(III)] | -3% | 0 of 6 | 60% | 3 of 6 | 91% | 3 of 6 | 98% | 4 of 6 | 1% | 0 of 6 | -69% | 0 of 6 | 12.8 mg/mL | 5.8 | 31 | peak ILS values [1]: > 90%; Maximum % ILS (Dosage) ([3]; 80 mg/kg): 98% |
| O=C(O)Cc1ccc[n+]([Au-]([Cl])([Cl])[Cl])c1 [Example 4, trichloro(3-pyridyacetic acid)gold(III)] | 6% | 0 of 6 | -15% | 0 of 6 | 63% | 1 of 6 | 57% | 1 of 6 | -41% | 0 of 6 | -90% | 0 of 6 | 12.8 mg/mL | 1.8 | 84 | Anti-tumor activity (in words) ([1]; 50% ILS criterion): pronounced antitumor effect; Maximum % ILS (Dosage) ([3]; 40 mg/kg): 63% |
| cis-[Pt(NH3)2 Cl2 ] [Cisplatin, reference compound] | – | – | – | – | – | – | – | – | – | – | – | – | – | – | – | Therapeutic index attributed to commercially available Cisplatin [4]: 2.2-2.5; Positive Control Survivors ([1]; Cisplatin in saline, 8 mg/kg, one value per test series, listed as Positive Control): 0 of 6 and 4 of 6 and 6 of 6 and 1 of 6 |
